Several values for one entry are separate records, joined by “and”; a condition that tells them apart may be missing. Identical values can stand only once.
System: MMT/MCLT rat model of OA
Test: MMT/MCLT trial 1 histopathology (same doses)
Format: in vivo
Conditions: low or only dose
Text: For MMT/MCLT rat knee joints, sections were cut in 200-μm steps; stained with toluidine blue (also with a right and left half per section); and similarly analyzed for cartilage degeneration, proteoglycan loss, collagen damage, and osteophyte formation. Results were averaged across the three sections for an overall semiquantitative score. Regional differences across the tibial plateau were taken into consideration by dividing each section into three zones delineated using an ocular micrometer (outside, middle, and inside). Scores were based on the percentage of area affected within the zone.
Cartilage degeneration in the tibia was scored on a 5-point scale as detailed in the Methods section of Additional file 1. The total extent of degeneration of the tibial plateau was measured (in micrometers) and included an analysis of cell loss, proteoglycan loss, and collagen damage. Significant cartilage degeneration reflecting any degeneration extending through more than 50 % of the cartilage thickness was also measured. Collagen damage across the medial tibial plateau (the most severely affected section of the two halves) was also quantified.
Osteophytes and femoral cartilage degeneration were analyzed as detailed in Additional file 1. Scoring of the osteophytes and categorization into small, medium, and large was performed using an ocular micrometer. The actual osteophyte measurement (tidemark to farthest distance point extending toward the synovium) was also recorded. The femoral cartilage degeneration score and the three-zone sum of the tibial cartilage degeneration scores (mean of three levels) were summed to create a total cartilage degeneration score. The mean osteophyte score for each joint was added to this value to create a total joint score. […]
Histopathology MMT/MCLT Model

With COc1cc(/C=C/C(=O)CC(=O)/C=C/c2ccc(O)c(OC)c2)ccc1O [Curcumin, Diferuloylmethane] the Bone score (mean) was 3.13, the “Femoral cartilage degeneration score” value (mean) was 2.21 and 2.21 ± 0.60 and the “Tibial cartilage degeneration score, 3-zone total” value (mean) was 6.50. For the same compound, the “Tibial cartilage degeneration score, zone 1” value (mean) was 4.08, the “Tibial cartilage degeneration score, zone 2” value (mean) was 2.38 and the “Tibial cartilage degeneration score, zone 3” value (mean) was 0.04. For the same compound, the “Tibial cartilage degeneration width, significant” value (mean) was 741.67 µm, the “Tibial cartilage degeneration width, total” value (mean) was 1312.50 µm and the Tibial osteophyte measure (mean) was 592.92 µm. The Tibial osteophyte score (mean) was 4.25, the Total joint score (mean) was 12.96 and 12.96 ± 0.62 and the “Total joint score w/o femur” value (mean) was 10.75. The “% decrease, bone score” value (vs saline group) was 4%, the “% decrease, femoral cartilage degeneration score” value (vs saline group) was -20% and the “% decrease, osteophyte measure” value (vs saline group) was -16%. For the same compound, the “% decrease, osteophyte score” value (vs saline group) was -9%, the “% decrease, significant degeneration width” value (vs saline group) was -2% and the “% decrease, tibial score 3-zone total” value (vs saline group) was 1%. The “% decrease, tibial score zone 1” value (vs saline group) was 5%, the “% decrease, tibial score zone 2” value (vs saline group) was -8% and the “% decrease, tibial score zone 3” value (vs saline group) was 0%. The “% decrease, total degeneration width” value (vs saline group) was 0%, the “% decrease, total joint score” value (vs saline group) was -5% and the “% decrease, total joint score w/o femur” value (vs saline group) was -3%.
